13 molecules from US20230322723A1, “COMPOUNDS FOR SUPPRESSING EGFR MUTANT CANCER AND PHARMACEUTICAL USE THEREOF” (J2H BIOTECH INC., priority 2020, published 2023) can be followed below.

SMILES strings stand for the structures.

The subject of one assay is EGFR^del19+T790M+C797S. Nature of the assay: EGFR protein degradation test (Western blot) in Ba/F3 cells expressing mutant EGFR del19+T790M+C797S (DTC). The note with it: compounds at 0.1 μM and 1 μM, 24 hours, Western blot with EGFR antibody. The class given is cell-based. The method, then:
(§1) The ability of the compounds of the present invention to degrade the mutant EGFR protein was confirmed in Ba/F3 cells expressing normal EGFR, mutant EGFR^del19+T790M+C797S or mutant EGFR^L858R+T790M+C797S. A Western blot test using the EGFR antibody was performed.
(§2) Specifically, Ba/F3 cells expressing EGFR were cultured in RPMI 1640 (Gibco, NY, USA) containing 10% fetal bovine serum (FBS, Gibco, NY, USA). Cells expressing normal EGFR, mutant EGFR^del19+T790M+C797S or mutant EGFR^L858R+T790M+C797S were treated with the compounds of the present invention at concentrations of 0.1 μM and 1 μM, respectively, for 24 hours. After that, it was washed twice with phosphate buffered saline (PBS) and SDS-PAGE was performed with 30 μg of cell lysate. After the protein separated on the gel was transferred to a nitrocellulose membrane, the expression level of the EGFR protein was confirmed using an EGFR antibody (Santa Cruz biotechnology, Santacruz, CA, USA). EGFR bands separated by Western blotting were quantitatively analyzed with Fluo-S MultiImager (Bio-Rad, Hercules, CA, USA).
For orientation: A western blot detects proteins with antibodies after separation by electrophoresis.

A further assay has as its target T1, EGFR^L858R+T790M+C797S (Homo sapiens, UniProt P00533, C797S/L858R/T790M).
T1 construct: expressed in transfected cells; host or cells: Ba/F3
Kind of assay: EGFR protein degradation test (Western blot) in Ba/F3 cells expressing mutant EGFR L858R+T790M+C797S (LTC). The note with it: compounds at 0.1 μM and 1 μM, 24 hours, Western blot with EGFR antibody. The class given is cell-based. How it is done: as §1, §2

T1 sequence (P00533 25-1210 T790M/C797S/L858R): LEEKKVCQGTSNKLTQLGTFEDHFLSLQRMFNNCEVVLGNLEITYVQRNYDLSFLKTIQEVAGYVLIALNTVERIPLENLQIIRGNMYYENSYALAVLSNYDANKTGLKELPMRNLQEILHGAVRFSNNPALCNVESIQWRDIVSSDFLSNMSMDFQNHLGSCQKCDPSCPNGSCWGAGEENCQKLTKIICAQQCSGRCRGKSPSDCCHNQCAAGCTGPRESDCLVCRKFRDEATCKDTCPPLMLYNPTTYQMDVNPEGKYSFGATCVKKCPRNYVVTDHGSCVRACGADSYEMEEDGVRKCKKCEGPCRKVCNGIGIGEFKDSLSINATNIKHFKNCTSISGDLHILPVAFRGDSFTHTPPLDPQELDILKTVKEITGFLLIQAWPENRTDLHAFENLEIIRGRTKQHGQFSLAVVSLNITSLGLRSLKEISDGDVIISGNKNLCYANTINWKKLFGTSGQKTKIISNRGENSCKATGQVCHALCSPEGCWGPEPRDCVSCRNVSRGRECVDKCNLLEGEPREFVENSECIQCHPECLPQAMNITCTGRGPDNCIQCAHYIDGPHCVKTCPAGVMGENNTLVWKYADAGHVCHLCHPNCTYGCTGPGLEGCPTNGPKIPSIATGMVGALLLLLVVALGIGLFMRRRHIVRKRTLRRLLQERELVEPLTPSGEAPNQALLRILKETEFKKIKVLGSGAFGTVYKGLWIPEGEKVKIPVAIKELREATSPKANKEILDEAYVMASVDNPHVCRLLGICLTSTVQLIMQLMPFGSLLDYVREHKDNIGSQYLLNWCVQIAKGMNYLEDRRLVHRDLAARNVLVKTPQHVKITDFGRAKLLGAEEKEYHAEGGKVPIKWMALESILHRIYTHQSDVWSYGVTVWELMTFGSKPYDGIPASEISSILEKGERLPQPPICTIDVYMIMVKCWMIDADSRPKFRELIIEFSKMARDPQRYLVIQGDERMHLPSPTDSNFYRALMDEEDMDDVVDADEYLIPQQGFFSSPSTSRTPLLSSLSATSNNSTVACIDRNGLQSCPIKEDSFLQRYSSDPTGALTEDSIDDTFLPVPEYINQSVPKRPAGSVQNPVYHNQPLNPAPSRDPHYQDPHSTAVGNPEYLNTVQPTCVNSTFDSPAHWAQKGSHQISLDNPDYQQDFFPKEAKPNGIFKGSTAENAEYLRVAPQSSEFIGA

For the molecule `COc1cc(N2CCN(CCOCCOc3cccc4c3C(=O)N(C3CCC(=O)NC3=O)C4=O)CC2)ccc1Nc1ncc(Cl)c(Nc2ccccc2N(C)S(C)(=O)=O)n1` (centres unmarked) [Compound 12, N-(2-((5-chloro-2-((4-(4-(2-(2-((2-(2,6-dioxopiperidin-3-yl)-1,3-dioxoisoindolin-4-yl)oxy)ethoxy)ethyl)piperazin-1-yl)-2-methoxyphenyl)amino)pyrimidin-4-yl)amino)phenyl)N-methylmethanesulfonamide], the “DTC (EGFR^del19+T790M+C797S) protein degradation” value (from here on “DTC”) in the assay on EGFR^del19+T790M+C797S is listed as “− (Protein degradation < 20%)”. In addition, the “LTC (EGFR^L858R+T790M+C797S) protein degradation” value (“LTC” below) on EGFR^L858R+T790M+C797S was “− (Protein degradation < 20%)”.
Consider `COc1cc(N2CCC(N3CCN(CCOCCOc4cccc5c4C(=O)N(C4CCC(=O)NC4=O)C5=O)CC3)CC2)ccc1Nc1ncc(Cl)c(Nc2ccccc2N(C)S(C)(=O)=O)n1` (centres unmarked) [Compound 13, N-(2-((5-chloro-2-((4-(4-(4-(2-(2-((2-(2,6-dioxopiperidin-3-yl)-1,3-dioxoisoindolin-4-yl)oxy)ethoxy)ethyl)piperazin-1-yl)piperidin-1-yl)-2-methoxyphenyl)amino)pyrimidin-4-yl)amino)phenyl)N-methylmethanesulfonamide], for which, in the assay on EGFR^del19+T790M+C797S, the “DTC” value is on record as “+ (Protein degradation 20~80%)”. On EGFR^L858R+T790M+C797S, the “LTC” value is “+ (Protein degradation 20~80%)”.
In the case of `COc1cc(N2CCN(CCCCOc3cccc4c3C(=O)N(C3CCC(=O)NC3=O)C4=O)CC2)ccc1Nc1ncc(Cl)c(Nc2ccccc2N(C)S(C)(=O)=O)n1` (centres unmarked) [Compound 14, N-(2-((5-chloro-2-((4-(4-(4-((2-(2,6-dioxopiperidin-3-yl)-1,3-dioxoisoindolin-4-yl)oxy)butyl)piperazin-1-yl)-2-methoxyphenyl)amino)pyrimidin-4-yl)amino)phenyl)-N-methylmethanesulfonamide], the “DTC” value in the assay on EGFR^del19+T790M+C797S is listed as “− (Protein degradation < 20%)”. Besides, the “LTC” value on EGFR^L858R+T790M+C797S was “+ (Protein degradation 20~80%)”.
Take `COc1cc(N2CCC(N3CCN(CCCCOc4cccc5c4C(=O)N(C4CCC(=O)NC4=O)C5=O)CC3)CC2)ccc1Nc1ncc(Cl)c(Nc2ccccc2N(C)S(C)(=O)=O)n1` (centres unmarked) [Compound 15, N-(2-((5-chloro-2-((4-(4-(4-(4-((2-(2,6-dioxopiperidin-3-yl)-1,3-dioxoisoindolin-4-yl)oxy)butyl)piperazin-1-yl)piperidin-1-yl)-2-methoxyphenyl)amino)pyrimidin-4-yl)amino)phenyl)-N-methylmethanesulfonamide]: the “DTC” value in the assay with EGFR^del19+T790M+C797S is on record as “+ (Protein degradation 20~80%)”. For the same molecule, the “LTC” value at EGFR^L858R+T790M+C797S is on record as “+ (Protein degradation 20~80%)”.
For `COc1cc(N2CCN(CCOCCNc3cccc4c3C(=O)N(C3CCC(=O)NC3=O)C4=O)CC2)ccc1Nc1ncc(Cl)c(Nc2ccccc2N(C)S(C)(=O)=O)n1` (centres unmarked) [Compound 16], the “DTC” value in the assay on EGFR^del19+T790M+C797S is “− (Protein degradation < 20%)”. In addition, the “LTC” value at EGFR^L858R+T790M+C797S is listed as “+ (Protein degradation 20~80%)”.
With `Cc1ncsc1-c1ccc(CNC(=O)[C@H]2C[C@@H](O)CN2C(=O)[C@@H](NC(=O)CCCCN2CCN(c3ccc(Nc4ncc(Cl)c(Nc5ccccc5N(C)S(C)(=O)=O)n4)cc3F)CC2)C(C)(C)C)cc1` [Compound 17, (2R,4R)-1-((S)-2-(5-(4-(4-((5-chloro-4-((2-(N-methylmethylsulfonamido)phenyl)amino)pyrimidin-2-yl)amino)-2-fluorophenyl)piperazin-1-yl)pentanamido)3,3-dimethylbutanoyl)4-hydroxy-N-(4-(4-methylthiazol-5-yl)benzyl)pyrrolidin-2-carboxamide], in the assay on EGFR^del19+T790M+C797S, the “DTC” value is reported as “+ (Protein degradation 20~80%)”. Further, the “LTC” value on EGFR^L858R+T790M+C797S was “− (Protein degradation < 20%)”.
On the same counts, the results for `Cc1ncsc1-c1ccc(CNC(=O)[C@H]2C[C@@H](O)CN2C(=O)[C@@H](NC(=O)CCCCN2CCN(C3CCN(c4ccc(Nc5ncc(Cl)c(Nc6ccccc6N(C)S(C)(=O)=O)n5)cc4F)CC3)CC2)C(C)(C)C)cc1` [Compound 18, (2R,4R)-1-((S)-2-(5-(4-(1-(4-((5-chloro-4-((2-(N-methylmethylsulfonamido)phenyl)amino)pyrimidin-2-yl)amino)-2-fluorophenyl)piperidin-4-yl)piperazin-1-yl)pentanamido)-3,3-dimethylbutanoyl)-4-hydroxy-N-(4-(4-methylthiazol-5-yl)benzyl)pyrrolidin-2-carboxamide] are “− (Protein degradation < 20%)” and “− (Protein degradation < 20%)”.
On to `Cc1ncsc1-c1ccc(CNC(=O)[C@H]2C[C@@H](O)CN2C(=O)[C@@H](NC(=O)CN2CCN(C3CCN(c4ccc(Nc5ncc(Cl)c(Nc6ccccc6N(C)S(C)(=O)=O)n5)cc4F)CC3)CC2)C(C)(C)C)cc1` [Compound 19, (2R,4R)-1-((S)-2-(2-(4-(1-(4-((5-chloro-4-((2-(N-methylmethylsulfonamido)phenyl)amino)pyrimidin-2-yl)amino)-2-fluorophenyl)piperidin-4-yl)piperazin-1-yl)acetamido)-3,3-dimethylbutanoyl)-4-hydroxy-N-(4-(4-methylthiazol-5-yl)benzyl)pyrrolidin-2-carboxamide], for which the “DTC” value in the assay with EGFR^del19+T790M+C797S is “++ (Protein degradation > 80%)”. Further, the “LTC” value on EGFR^L858R+T790M+C797S is given as “+ (Protein degradation 20~80%)”.
Turning to `COc1cc(N2CCC(N3CCN(CC(=O)Nc4cccc5c4C(=O)N(C4CCC(=O)NC4=O)C5=O)CC3)CC2)ccc1Nc1ncc(Cl)c(Nc2ccccc2N(C)S(C)(=O)=O)n1` (centres unmarked) [Compound 21, 2-(4-(1-(4-((5-chloro-4-((2-(N-methylmethylsulfonamido)phenyl)amino)pyrimidin-2-yl)amino)-3-methoxyphenyl)piperidin-4-yl)piperazin-1-yl)-N-(2-(2,6-dioxopiperidin-3-yl)-1,3-dioxoisoindolin-4-yl)acetamide], in the assay with EGFR^del19+T790M+C797S, the “DTC” value was “− (Protein degradation < 20%)”. The “LTC” value at EGFR^L858R+T790M+C797S is reported as “− (Protein degradation < 20%)”.
On to `COc1cc(N2CCC(CN3CCN(CC(=O)Nc4cccc5c4C(=O)N(C4CCC(=O)NC4=O)C5=O)CC3)CC2)ccc1Nc1ncc(Cl)c(Nc2ccccc2N(C)S(C)(=O)=O)n1` (centres unmarked) [Compound 23, 2-(4-((1-(4-((5-chloro-4-((2-(N-methylmethylsulfonamido)phenyl)amino)pyrimidin-2-yl)amino)-3-methoxyphenyl)piperidin-4-yl)methyl)piperazin-1-yl)-N-(2-(2,6-dioxopiperidin-3-yl)-1,3-dioxoisoindolin-4-yl)acetamide], for which the “DTC” value with EGFR^del19+T790M+C797S was “− (Protein degradation < 20%)”. Moreover, the “LTC” value at EGFR^L858R+T790M+C797S was “− (Protein degradation < 20%)”.
As to `COc1cc(N2CCN(CC3CCN(CC(=O)Nc4cccc5c4C(=O)N(C4CCC(=O)NC4=O)C5=O)CC3)CC2)ccc1Nc1ncc(Cl)c(Nc2ccccc2N(C)S(C)(=O)=O)n1` (centres unmarked) [Compound 25, 2-(4-((4-(4-((5-chloro-4-((2-(N-methylmethylsulfonamido)phenyl)amino)pyrimidin-2-yl)amino)-3-methoxyphenyl)piperazin-1-yl)methyl)piperidin-1-yl)-N-(2-(2,6-dioxopiperidin-3-yl)-1,3-dioxoisoindolin-4-yl)acetamide], the “DTC” value with EGFR^del19+T790M+C797S is “− (Protein degradation < 20%)”. In addition, the “LTC” value at EGFR^L858R+T790M+C797S is “− (Protein degradation < 20%)”.
As to `COc1cc(N2CCC(CN3CCC(C(=O)N[C@H](C(=O)N4C[C@H](O)C[C@H]4C(=O)NCc4ccc(-c5scnc5C)cc4)C(C)(C)C)CC3)CC2)ccc1Nc1ncc(Cl)c(Nc2ccccc2N(C)S(C)(=O)=O)n1` [Compound 29, 1-((1-(4-((5-chloro-4-((2-(N-methylmethylsulfonamido)phenyl)amino)pyrimidin-2-yl)amino)-3-methoxyphenyl)piperidin-4-yl)methyl)-N—((S)-1-((2S,4R)-4-hydroxy-2-((4-(4-methylthiazol-5-yl)benzyl)carbamoyl)pyrrolidin-1-yl)-3,3-dimethyl-1-oxobutan-2-yl)piperidin-4-carboxamide], the “DTC” value in the assay with EGFR^del19+T790M+C797S is “− (Protein degradation < 20%)”. In addition, the “LTC” value on EGFR^L858R+T790M+C797S is “− (Protein degradation < 20%)”.
Take `COc1cc(N2CCC3(CCN(CCC(=O)Nc4cccc5c4C(=O)N(C4CCC(=O)NC4=O)C5=O)CC3)CC2)ccc1Nc1ncc(Cl)c(Nc2ccccc2N(C)S(C)(=O)=O)n1` (centres unmarked) [Compound 30, 3-(9-(4-((5-chloro-4-((2-(N-methylmethylsulfonamido)phenyl)amino)pyrimidin-2-yl)amino)-3-methoxyphenyl)-3,9-diazaspiro[5,5]undecan-3-yl)-N-(2-(2,6-dioxopiperidin-3-yl)-1,3-dioxoisoindolin-4-yl)propanamide]: in the assay on EGFR^del19+T790M+C797S, the “DTC” value is given as “− (Protein degradation < 20%)”. At EGFR^L858R+T790M+C797S, the “LTC” value is “− (Protein degradation < 20%)”.
